According to patent publication US20250340537A1, “PHARMACEUTICALLY ACTIVE COMPOUNDS, COMPOSITIONS, AND METHODS FOR MODULATING PENDRIN” (ARBORMED Co., Ltd., priority 2022, published 2025):

Biological target: T1, H723R-pendrin (Homo sapiens, UniProt O43511, H723R)
T1 construct: expressed in transfected cells; host or cells: PANC-1
T1 sequence (O43511 1-780 H723R): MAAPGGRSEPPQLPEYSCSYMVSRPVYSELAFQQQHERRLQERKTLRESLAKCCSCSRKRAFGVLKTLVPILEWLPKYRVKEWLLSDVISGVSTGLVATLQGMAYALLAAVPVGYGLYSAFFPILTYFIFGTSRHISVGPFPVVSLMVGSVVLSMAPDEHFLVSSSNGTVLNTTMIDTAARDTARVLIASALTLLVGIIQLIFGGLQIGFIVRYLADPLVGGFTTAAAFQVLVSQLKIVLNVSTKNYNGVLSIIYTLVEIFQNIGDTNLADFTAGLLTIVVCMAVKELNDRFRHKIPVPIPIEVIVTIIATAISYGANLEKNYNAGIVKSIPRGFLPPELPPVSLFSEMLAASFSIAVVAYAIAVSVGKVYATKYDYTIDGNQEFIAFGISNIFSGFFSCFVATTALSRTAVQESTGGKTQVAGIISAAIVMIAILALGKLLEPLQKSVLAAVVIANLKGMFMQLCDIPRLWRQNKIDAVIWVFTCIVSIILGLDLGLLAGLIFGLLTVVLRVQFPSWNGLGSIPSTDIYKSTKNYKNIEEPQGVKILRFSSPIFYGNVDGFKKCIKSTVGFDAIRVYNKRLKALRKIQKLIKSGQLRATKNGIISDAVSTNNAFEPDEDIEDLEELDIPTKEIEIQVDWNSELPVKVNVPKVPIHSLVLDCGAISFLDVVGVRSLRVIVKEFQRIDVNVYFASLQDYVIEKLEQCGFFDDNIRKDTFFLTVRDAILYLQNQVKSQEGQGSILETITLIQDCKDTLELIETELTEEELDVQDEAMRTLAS
Experiment: YFP fluorescence quenching assay (Cl−/I− exchange activity of pendrin)
Format: cell-based
Details: PANC-1 cells stably expressing human H723R-pendrin and YFP-F46L/H148Q/I152L; compound incubation 20-24 hours; iodide influx
Source text: Halide sensor YFP F46L/H148Q/I152L is quenched by halide ion like Iodide. When such YFP is expressed in a cell, it expresses in the cytoplasm.
To measure H723R-PDS activity, PANC-1 cells were stably transfected with halide sensors YFP-F46L/H148Q/I152L and H723R-PDS which has problems with membrane trafficking due to misfolding.
If the cell-treated drug is a corrector for H723R-PDS, H723R-PDS will translocate normally to the plasma membrane.
At this time, when treated with a high-concentration iodide solution outside the cell, iodide enters the cell due to the Cl−/I− exchange activity of pendrin, and the fluorescence of the halide sensor YFP decreases.
PANC-1 cells were cultured in Dulbecco's Modified Eagle's Medium with 10% fetal bovine serum, 2 mM glutamine, 100 units/ml penicillin and 100 µg/ml streptomycin. For high-throughput screening, PANC-1 cells were stably transfected with human H723R-pendrin and halide sensor YFP-F46L/H148Q/I152L.
PANC-1 cells expressing human H723R-pendrin and YFP-F46L/H148Q/I152L were plated in 96-well microplates at a density of 2×10^4 cells per well and grown for 20-24 hours at 37° C. (90% humidity 5% CO2). Then these cells were treated with 50 μl growth medium containing test compounds and incubated for 20-24 hours. For YFP quenching assay, each well of the 96-well plate was washed 2 times with 200 μl of PBS, and it was filled with 50 μl of HEPES-buffered solution (140 mM NaCl, 5 mM KCl, 1 mM MgCl2, 1 mM CaCl2, 10 mM D-glucose, 10 mM HEPES; pH 7.4 with NaOH). After 10 minutes of incubation at 37° C., the 96-well plate was moved on the FLUOstar Omega Microplate Reader (BMG Labtech, Ortenberg, Germany) for a fluorescence assay. Each well was assayed individually for H723R-pendrin mediated I^− influx by recording fluorescence (495±15 nm excitation, 520±20 nm emission) every 400 ms for 1 second (baseline). Then, 50 μL of NaI-substituted HEPES-buffered solution (NaI replacing NaCl) was added using a liquid injector at 1 second and YFP fluorescence was recorded every 400 ms for 10 seconds. The initial iodide influx rate was determined from the initial slope of fluorescence by nonlinear regression, after the infusion of iodide.
It is indicated as EC50 with the following key: A=EC50 less than 5 uM; B=EC50 greater than 5 uM, but less than 10 uM; C=EC50 greater than 10 uM.

Structure (SMILES)	EC50 [µM]
COc1ccc(-c2nccc(C3=C(N)N(c4ccccc4F)CC3=O)n2)cc1OC [Compound 5]	> 10
NC1=C(c2cccc(-c3ccc(O)c(O)c3)n2)C(=O)CN1c1ccccc1F [Compound 92]	5 to 10
NC1=C(c2cncc(-c3ccc(O)c(O)c3)c2)C(=O)CN1CC1CCOC1 (stereo not drawn) [Compound 51]	> 10
COc1cc2c(cc1OC)CN(c1cncc(C3=C(N)N(c4ccccc4Cl)CC3=O)n1)CC2 [Compound 16]	> 10
COc1ccc(-c2cc(C3=C(N)N(c4ccccc4F)CC3=O)ccn2)cc1OC [Compound 100]	> 10
NC1=C(c2cncc(-c3ccc4nccnc4c3)n2)C(=O)CN1c1ccccc1Cl [Compound 12]	> 10
NC1=C(c2ccc(-c3ccc(O)c(O)c3)nc2)C(=O)CN1c1ccccc1Cl [Compound 59]	> 10
COc1ccc(-c2cccc(C3=C(N)N(CC4CCNC4)CC3=O)n2)cc1OC (stereo not drawn) [Compound 85]	> 10
NC1=C(c2cncc(-c3ccc4c(c3)OCO4)n2)C(=O)CN1c1ccccc1Cl [Compound 10]	> 10
COc1cc(-c2cncc(C3=C(N)N(CC4CCNC4)CC3=O)c2)ccc1O (stereo not drawn) [Compound 90]	> 10
COc1ccc(-c2ccnc(C3=C(N)N(CC4CCNC4)CC3=O)n2)cc1OC (stereo not drawn) [Compound 82]	> 10
COc1ccc(-c2cnc(C3=C(N)N(c4ccccc4F)CC3=O)nc2)cc1OC [Compound 2]	> 10
COc1ccc(-c2cc(C3=C(N)N(c4ccccc4Cl)CC3=O)ncn2)cc1OC [Compound 68]	> 10
NC1=C(c2cncc(-c3ccc(O)c(O)c3)c2)C(=O)CN1CC1CCNC1 (stereo not drawn) [Compound 60]	> 10
COc1ccc(-c2ccc(C3=C(N)N(c4ccccc4Cl)CC3=O)cn2)cc1OC [Compound 58]	> 10
COc1ccc(-c2nccc(C3=C(N)N(c4ccccc4Cl)CC3=O)n2)cc1OC [Compound 98]	> 10

Structure (SMILES)	EC50 [µM]
COc1ccc(-c2cc(C3=C(N)N(CC4CCCC4)CC3=O)ccn2)cc1OC [Compound 108]	> 10
COCOc1ccc(-c2cncc(C3=C(N)N(C4CCCC4)CC3=O)n2)cc1OC1COC1 [Compound 115]	> 10
NC1=C(c2cccc(-c3ccc(O)c(O)c3)n2)C(=O)CN1CCC(F)(F)F [Compound 94]	> 10
COc1ccc(-c2ccnc(C3=C(N)N(CC4CCCC4)CC3=O)n2)cc1OC [Compound 56]	> 10
COc1ccc(-c2ccnc(C3=C(N)N(CC4CCOC4)CC3=O)n2)cc1OC (stereo not drawn) [Compound 84]	> 10
NC1=C(c2cncc(-c3ccc(OC(F)(F)F)c(O)c3)n2)C(=O)CN1c1ccccc1Cl [Compound 31]	> 10
COc1ccc(-c2nccc(C3=C(N)N(CC4CCCC4)CC3=O)n2)cc1OC [Compound 77]	> 10
NC1=C(c2cncc(-c3ccc(O)c(O)c3)c2)C(=O)CN1c1ccccc1Cl [Compound 47]	> 10
NC1=C(c2ccnc(-c3ccc(O)c(O)c3)n2)C(=O)CN1CC1CCCC1 [Compound 79]	< 5
COc1ccc(-c2cccc(C3=C(N)N(CC4CCOC4)CC3=O)n2)cc1OC (stereo not drawn) [Compound 87]	5 to 10
COc1cc(-c2cncc(C3=C(N)N(CC4CCCC4)CC3=O)c2)ccc1O [Compound 71]	> 10
COc1ccc(-c2cncc(C3=C(N)N(c4ccccc4Cl)CC3=O)c2)cc1OC [Compound 7]	> 10
COc1ccc(-c2cc(C3=C(N)N(c4ccccc4Cl)CC3=O)ccn2)cc1OC [Compound 106]	> 10
NC1=C(c2ccnc(-c3ccc(O)c(O)c3)c2)C(=O)CN1c1ccccc1Cl [Compound 102]	> 10
NC1=C(c2cccc(-c3ccc(O)c(O)c3)n2)C(=O)CN1c1ccccc1Cl [Compound 76]	> 10
NC1=C(c2cncc(-c3cc(O)cc(O)c3)n2)C(=O)CN1c1ccccc1Cl [Compound 24]	> 10

The remaining lines, values ahead:

EC50 [µM]	Structure (SMILES)
> 10	COc1ccc(-c2cncc(C3=C(N)N(C4CCC(F)(F)C4)CC3=O)n2)cc1OC (stereo not drawn) [Compound 61]
5 to 10	NC1=C(c2cncc(-c3ccc(O)c(OC(F)(F)F)c3)n2)C(=O)CN1c1ccccc1Cl [Compound 32]
5 to 10	NC1=C(c2cncc(-c3ccc(O)c(O)c3)n2)C(=O)CN1c1cccc(Cl)c1Cl [Compound 64]
> 10	NC1=C(c2cncc(-c3ccc(O)c(OC4CNC4)c3)n2)C(=O)CN1CC1CCCC1 [Compound 89]
> 10	COc1ccc(-c2cncc(C3=C(N)N(CC4CCN(C)C4)CC3=O)n2)cc1OC (stereo not drawn) [Compound 52]
> 10	COC1CC(Oc2cc(-c3cncc(C4=C(N)N(CC5CCCC5)CC4=O)n3)ccc2O)C1 (stereo not drawn) [Compound 118]
5 to 10	NC1=C(c2cncc(-c3ccc(O)c(OC4COC4)c3)n2)C(=O)CN1C1CCCC1 [Compound 117]
> 10	NC1=C(c2cncc(-c3ccc(O)c(O)c3)n2)C(=O)CN1CC1CCNC1 (stereo not drawn) [Compound 40]
< 5	COCOc1ccc(-c2cncc(C3=C(N)N(CC4CCCC4)CC3=O)n2)cc1OC [Compound 116]
< 5	COc1ccc(-c2cncc(C3=C(N)N(CCC4CCCC4)CC3=O)n2)cc1OC [Compound 44]
> 10	COc1ccc(-c2cncc(C3=C(N)N(c4ccccc4Cl)CC3=O)n2)cc1O [Compound 29]
< 5	NC1=C(c2cncc(-c3ccc(O)c(OC4CC(O)C4)c3)n2)C(=O)CN1CC1CCCC1 (stereo not drawn) [Compound 111]
> 10	CN1CCC(CN2CC(=O)C(c3cncc(-c4ccc(O)c(O)c4)n3)=C2N)C1 (stereo not drawn) [Compound 53]
5 to 10	COc1ccc(-c2cncc(C3=C(N)N(c4ccccc4F)CC3=O)n2)cc1OC [Compound 4]
5 to 10	COc1ccc(-c2cncc(C3=C(N)N(C4CCCC4)CC3=O)n2)cc1OC [Compound 14]
> 10	COc1ccc(-c2cncc(C3=C(N)N(c4ccccc4O)CC3=O)n2)cc1OC [Compound 42]
> 10	COc1ccc(-c2cncc(C3=C(N)N(CC4CCNC4)CC3=O)n2)cc1OC (stereo not drawn) [Compound 39]
< 5	NC1=C(c2cncc(-c3ccc(O)c(OC4COC4)c3)n2)C(=O)CN1CC1CCCC1 [Compound 70]
5 to 10	NC1=C(c2cncc(-c3ccc(O)c(OC4COC4)c3)n2)C(=O)CN1CC1CCC1 [Compound 112]
> 10	NC1=C(c2cncc(-c3ccc(O)c(O)c3)n2)C(=O)CN1c1ncncc1Cl [Compound 120]
< 5	CNCCOc1cc(-c2cncc(C3=C(N)N(CC4CCCC4)CC3=O)n2)ccc1O [Compound 107]
< 5	COCCOc1cc(-c2cncc(C3=C(N)N(CC4CCCC4)CC3=O)n2)ccc1O [Compound 99]
> 10	NC1=C(c2cncc(-c3ccc(O)c(O)c3)n2)C(=O)CN1c1cccnc1Cl [Compound 119]
> 10	NC1=C(c2cncc(-c3ccc(O)c(O)c3)n2)C(=O)CN1c1ccccc1O [Compound 43]
< 5	NC1=C(c2cncc(-c3ccc(O)c(O)c3)n2)C(=O)CN1c1ccccc1F [Compound 78]
> 10	NC1=C(c2cncc(-c3ccc(O)c(OCCO)c3)n2)C(=O)CN1CC1CCCC1 [Compound 103]
> 10	COc1ccc(-c2cncc(C3=C(N)N(CCC(F)(F)F)CC3=O)n2)cc1OC [Compound 17]
> 10	CNc1ccc(-c2cncc(C3=C(N)N(CC(C)C)CC3=O)n2)cc1NC [Compound 26]
